Data on 21 compounds can be found in ChEMBL document CHEMBL5634069, “Exploring N-myristoyltransferase as a promising drug target against parasitic neglected tropical diseases” (Eur J Med Chem, 2023).

The structures appear in SMILES notation.

The target in data set [1] is T1, Glycylpeptide N-tetradecanoyltransferase (Plasmodium falciparum, UniProt Q9U419).
T1 sequence (Q9U419 whole entry): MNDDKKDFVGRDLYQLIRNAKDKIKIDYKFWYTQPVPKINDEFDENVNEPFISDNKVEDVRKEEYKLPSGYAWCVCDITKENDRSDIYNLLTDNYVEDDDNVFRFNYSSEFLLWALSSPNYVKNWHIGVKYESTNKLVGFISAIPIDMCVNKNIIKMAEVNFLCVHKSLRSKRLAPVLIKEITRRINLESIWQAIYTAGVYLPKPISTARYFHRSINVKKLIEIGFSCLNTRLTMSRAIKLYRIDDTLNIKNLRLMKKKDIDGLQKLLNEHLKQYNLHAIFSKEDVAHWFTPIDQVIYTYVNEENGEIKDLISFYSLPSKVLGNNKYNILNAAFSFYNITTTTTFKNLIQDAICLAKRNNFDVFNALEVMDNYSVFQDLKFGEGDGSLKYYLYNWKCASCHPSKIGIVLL
Briefly: Inhibition of recombinant N-terminal Plasmodium falciparum NMT expressed in Escherichia coli using peptide substrate preincubated for 5 mins followed by substrate addition and measured after 30 mins by scintillation proximity assay. In general terms: Scintillation proximity formats need no separation of bound from free tracer.

The test system of data set [2] is Plasmodium falciparum. Briefly: Antiplasmodial activity against synchronized late stage trophozoite Plasmodium falciparum 3D7 assessed as reduction in parasitemia relative to control. Type of data set: functional. Details: scale not given: the % may be the effect or the level left.
Data set [3] can be described thus: Inhibition of Trypanosoma brucei NMT by scintillation proximity assay.
In data set [4] the test system is Plasmodium falciparum. Briefly: Antiplasmodial activity against trophozoite stage Plasmodium falciparum 3D7 assessed as inhibition of plasmodial growth measured after 48 hrs by flow cytometry analysis. Type of data set: functional, organism-based. Particulars: 3D7, 48 h.
For data set [5], the system named is Plasmodium falciparum. Kind of data set: Antiplasmodial activity against chloroquine resistant Plasmodium falciparum K1 assessed as inhibition of plasmodial growth measured after 48 hrs by flow cytometry analysis. Particulars: K1, 48 h. Type of data set: functional, organism-based. (Flow cytometry measures light scatter and fluorescence of single cells or particles in a stream.)

Data set [6] is described as follows: Cytotoxicity against MDCK cells incubated overnight by MTT assay. Type of data set: toxicity, cell-based, Canis lupus familiaris. Particulars: dog. A general note: Tetrazolium dyes change colour on reduction, which living cells bring about.
The nature of data set [7]: Selectivity index, ratio of IC50 for MDCK cells to IC50 for trophozoite stage Plasmodium falciparum 3D7. As to conditions: dog; read-out: Ratio IC50. In kind it is toxicity.
The next data set has as its system Leishmania amazonensis. Kind of data set: Antileishmanial activity against Leishmania amazonensis IFLA/BR/1967/PH8 promastigote. Type of data set: functional, organism-based.
Data set [8] relates to Trypanosoma brucei. Kind of data set: Antitrypanosomal activity against Trypanosoma brucei assessed as reduction in parasite growth. In kind it is functional, organism-based.
The nature of data set [9]: Inhibition of Trypanosoma brucei NMT.
For data set [10], the target named is T2, Glycylpeptide N-tetradecanoyltransferase 1 (Homo sapiens, UniProt P30419).
T2 sequence (P30419 whole entry): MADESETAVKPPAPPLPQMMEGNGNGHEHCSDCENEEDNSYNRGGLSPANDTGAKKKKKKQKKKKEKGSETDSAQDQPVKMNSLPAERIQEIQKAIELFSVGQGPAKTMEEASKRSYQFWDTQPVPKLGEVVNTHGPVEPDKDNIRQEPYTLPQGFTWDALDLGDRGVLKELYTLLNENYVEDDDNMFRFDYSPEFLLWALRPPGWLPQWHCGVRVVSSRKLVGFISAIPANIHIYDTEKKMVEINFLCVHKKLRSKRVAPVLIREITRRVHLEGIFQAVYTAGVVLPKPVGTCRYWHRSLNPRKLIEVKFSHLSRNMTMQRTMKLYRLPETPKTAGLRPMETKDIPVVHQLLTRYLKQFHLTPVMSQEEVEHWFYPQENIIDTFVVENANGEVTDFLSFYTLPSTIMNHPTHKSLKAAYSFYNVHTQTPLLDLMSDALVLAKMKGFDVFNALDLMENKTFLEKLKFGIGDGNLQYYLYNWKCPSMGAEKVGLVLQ
Kind of data set: Inhibition of human NMT.

The nature of data set [11]: Inhibition of N terminal his-6 tagged recombinant Trypanosoma brucei NMT using CAP5.5 peptide as substrate incubated for 10 mins.
Data set [12] concerns Trypanosoma brucei. Briefly: Antiprotozoal activity against blood stream form Trypanosoma brucei assessed as reduction in number of viable parasites measured after 72 hrs by Alamar blue staining based analysis. Type of data set: functional. As to conditions: read-out: ED50 (the source's name).
The nature of data set [13]: Cytotoxicity against mouse RAW 264 cells by alamar blue staining based analysis. Type of data set: functional. Particulars: RAW264.7, read-out: ED50 (the source's name).
Data set [14] concerns Trypanosoma cruzi. Briefly: Antiprotozoal activity against Trypanosoma cruzi amastigotes measured after 24 hrs. In kind it is functional, organism-based.
In data set [15] the test system is Trypanosoma cruzi. Kind of data set: Antiprotozoal activity against Trypanosoma cruzi epimastigotes assessed as reduction in parasite growth relative to control. Type of data set: functional. Set-up: scale not given: the % may be the effect or the level left.
For data set [16], the system named is Plasmodium falciparum. Briefly: Antiplasmodial activity against Plasmodium falciparum. Type of data set: functional, organism-based.
Data set [17] in a line: Binding affinity to Leishmania donovani NMT assessed as apparent inhibition constant. Particulars: read-out: Ki(app).
Data set [18] has as its system Leishmania donovani. Briefly: Antileishmanial activity against Leishmania donovani amastigotes. Type of data set: functional, organism-based.
The test system of data set [19] is Leishmania donovani. Kind of data set: Antileishmanial activity against Leishmania donovani promastigotes. In kind it is functional, organism-based.
Data set [20] deals with Leishmania donovani. Kind of data set: Antileishmanial activity against Leishmania donovani promastigote assessed as reduction in parasite growth measured after 72 hrs. Type of data set: functional, organism-based.
Data set [21] relates to Trypanosoma brucei brucei. Kind of data set: Antitrypanosomal activity against bloodstream Trypanosoma brucei brucei s427 assessed as reduction in parasite growth measured after 72 hrs by inverted microscope based analysis. In kind it is functional, organism-based. Particulars: s427, 72 h.

Usually IC50 stands for the concentration that gives 50% inhibition. Turning to `O=C(Nc1nc2ccccc2s1)[C@H]1CC[C@@H](NCc2ccc3ccccc3c2)CC1`, the IC50 in data set [1] amounted to 30 µM. Further, in the data set with Plasmodium falciparum [2], the Activity came out at 80%.

Turning to `Cc1nn(C)c(C)c1NS(=O)(=O)c1c(Cl)cc(Br)cc1Cl`, the IC50 in data set [3] came out at 0.34 µM.

As to `O=S(=O)(c1cc(Cl)ccc1Cl)N1CCC(O[C@@H](c2ccc(Cl)cc2)c2ccccn2)CC1`, the IC50 with Plasmodium falciparum [4] is 2.91 µM; in the data set with Plasmodium falciparum [5], 4.19 µM; in [6], > 200 µM. Besides, the selectivity ratio in data set [7] was > 68.8.

Consider `O=C(C[Se]C(=O)c1ccccc1)Nc1ccc(Cl)cc1`, for which the IC50 in the data set with Leishmania amazonensis was 7.08 µM.

Regarding `Cc1cc(CN2C(=O)COc3c(CCCCC4CCNCC4)cccc32)no1`, the EC50 with Trypanosoma brucei [8] stood at 0.007 µM.

On to `Cc1cc(CN2C(=O)COc3c(CCCCC4CCCN(C)CC4)cccc32)no1` (stereo not drawn), for which the IC50 in [9] was < 0.002 µM; in data set [10], 0.1 µM. The EC50 in the data set with Trypanosoma brucei [8] turned out to be 0.007 µM.

Consider `Cc1cc(CN2C(=O)COc3cc(CCCCC4CCN(C)CC4)ccc32)no1`, for which the EC50 in the data set with Trypanosoma brucei [8] worked out at 0.007 µM.

On to `CC(=O)O[C@@H]1C2[C@H](N(C)C)C(O)=C(C(N)=O)C(=O)[C@@]2(O)C(O)=C2C(=O)c3c(O)cccc3C(=O)[C@@H]21` (stereo partly drawn), for which, in data set [11], the IC50 amounted to 0.25 µM. The results for the EC50 (in the data set on Trypanosoma brucei [12]; in data set [13]) were 66 µM and 1500 µM, respectively.

In the data set on Leishmania amazonensis, `CCc1ccc(NC(=O)C[Se]C(=O)c2ccc(Cl)cc2)cc1` showed an IC50 of 7.41 µM.

The compound `COc1ccc(NC(=O)C[Se]C(=O)c2ccccc2)cc1` showed an IC50 with Leishmania amazonensis of 8.71 µM.

Take `Cc1cc(CN2C(=O)COc3c(CCCCC4CCN(C)CC4)cccc32)no1`: the EC50 in the data set on Trypanosoma brucei [8] was found to be 0.007 µM.

The compound `Cc1c(NS(=O)(=O)c2c(Cl)cc(-c3ccnc(N4CCNCC4)c3)cc2Cl)c(CC(C)C)nn1C` [ZELENIRSTAT] yielded an EC50 with Trypanosoma cruzi [14] of 1.83 µM. In the data set with Trypanosoma cruzi [15], the Activity was 0.43%.

With `O=C(C[Se]C(=O)c1ccc(Cl)cc1)Nc1ccc(Cl)cc1`, inhibition in the data set on Leishmania amazonensis was half-maximal at 9.12 µM (IC50).

In the data set on Plasmodium falciparum [16], `Cc1ccc(S(=O)(=O)NC(C)C(=O)NC(C)C(=O)NC23CC4CC(CC(C4)C2)C3)cc1` (stereo not drawn) displayed an IC50 of 3.6 µM.

On to `Cc1nn(C)c(C)c1NS(=O)(=O)c1c(Cl)cc(-c2ccnc(N3CCNCC3)c2)cc1Cl`, for which, in data set [17], the Ki is 0.0025 µM. Moreover, the values for the EC50 with Leishmania donovani [18] and with Leishmania donovani [19] were 7 µM and 23 µM, respectively.

As to `CCOC(=O)c1c(C)nn(-c2ccc(NS(=O)(=O)c3ccc(OC)cc3)cc2)c1C`, the 50% inhibitory concentration (IC50) in the data set with Leishmania donovani [20] turned out to be 13.8 µM; in [21], 2.91 µM.

With `COc1cc(C2SCC(=O)N2Cc2ccccc2)ccc1O` (stereo not drawn), half-maximal inhibition in data set [9] (IC50) was put at 22 µM.

On to `Cc1nc(CN2C(=O)COc3ccccc32)no1`, for which the IC50 in data set [9] was 7 µM.

With `COc1ccc(Br)c(-c2nnc(-c3ccccc3NS(=O)(=O)c3ccc(Cl)cc3)o2)c1`, in [21], the IC50 is 14.7 µM.

For the compound `Cc1nn(C)c(C)c1N(C(F)F)S(=O)(=O)c1c(Cl)cc(-c2ccc(CCCCC3CCN(C)CC3)cc2)cc1Cl`, the EC50 in the data set with Trypanosoma cruzi [14] came to 0.02 µM.

For the compound `Cc1cc(CN2C(=O)COc3ccccc32)no1`, 2.9 µM corresponded to half-maximal inhibition in data set [9] (IC50).
